From US9024022B2, “Substrates of O6-alkylguanine-DNA alkyltransferase and mutants thereof” (Cis Bio International, priority 2008, dated 2015)

Assays:
[1] = biological target: T1, CLIP-tag enzyme (CLIPtag-mGluR2 fusion protein) (Homo sapiens, UniProt P16455, A121V/A127T/A154D/C150Q/C62A/G131N/G132T/G153S/K125A/K32I/L33F/M134L/M60I/N157P/Q115S/Q116H/R128A/R135D/S151G/S152D/S159L/Y114E); test: Cell model with CLIPtag-mGluR2 and SNAPtag-mGluR2 cotransfection, TR-FRET at 665 nm; type: cell-based; conditions: cells incubated with 300 nM of BG-methylbenzamide-Tb(KR); TR-FRET; read-out: half saturation concentration of CLIPtag
T1 construct: The co-expressed SNAPtag-mGluR2 is a separate chain that carries the FRET partner dye
T1 sequence (P16455 1-207 K32I/L33F/M60I/C62A/Y114E/Q115S/Q116H/A121V/K125A/A127T/R128A/G131N/G132T/M134L/R135D/C150Q/S151G/S152D/G153S/A154D/N157P/S159L): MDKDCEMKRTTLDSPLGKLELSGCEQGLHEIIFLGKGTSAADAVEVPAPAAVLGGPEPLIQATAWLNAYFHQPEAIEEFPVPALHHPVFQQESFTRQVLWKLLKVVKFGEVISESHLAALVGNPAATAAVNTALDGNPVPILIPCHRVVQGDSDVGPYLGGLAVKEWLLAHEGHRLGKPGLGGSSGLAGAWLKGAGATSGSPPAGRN
Experimental: The cell model used in this example is different from that used in the preceding examples:
The cells are either cotransfected with a plasmid coding for the fusion protein CLIPtag-mGluR2 and another plasmid coding for the fusion protein SNAPtag-mGluR2, or transfected with a single plasmid coding for the fusion protein SNAPtag-mGluR2.
Each cell population is incubated in the presence of 300 nM of BG-methylbenzamide-DY647 and increasing concentrations of reference substrates (BC-Tb(KR)) or of a substrate according to the invention (BC-methylbenzamide-Tb(KR)). The fluorescence is measured at 665 nm in TR-FRET mode on a Rubystar machine and the signal measured is representative of a transfer of energy following the dimerization of two monomers of mGluR2 labeled respectively by DY647 and Tb(KR).
This example is carried out in the same way as example 7 but the cells are incubated in the presence of 300 nM of BG-methylbenzamide-Tb(KR) and increasing concentrations of reference substrate (BC-DY647) or of substrate according to the invention (BC-methylbenzamide-DY647), the formulae of which are below: […]

[2] = biological target: T2, N-AGT enzyme (AGT-mGluR2 fusion protein) (Homo sapiens, UniProt P16455); test: Enzymatic reactivity test in a cell model, N-AGT mutant; type: cell-based; conditions: for EC50: living cells, N-AGT mutant, labeling 1 h at 37° C., read-out: half saturation concentration of the enzyme
T2 construct: fused on or other part: type 2 metabotropic glutamate receptor (mGluR2)
T2 sequence (P16455 whole entry, looked up, the tested form may be a part): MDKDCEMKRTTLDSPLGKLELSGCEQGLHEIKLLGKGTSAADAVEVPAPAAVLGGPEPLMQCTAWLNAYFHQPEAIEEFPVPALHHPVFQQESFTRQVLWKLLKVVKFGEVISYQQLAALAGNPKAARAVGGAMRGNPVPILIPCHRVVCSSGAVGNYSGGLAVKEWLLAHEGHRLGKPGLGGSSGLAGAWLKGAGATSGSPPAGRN
Experimental: (§1) This procedure makes it possible to test the reactivity of substrates according to the invention with an AGT expressed by COS 7 cells in the form of a fusion protein with the type 2 glutamate transmembrane receptor (mGluR2).
(§2) Various mutants of AGT were analyzed in this study: SNAP-tag-ST26 or CLIP-tag from Covalys or the N-AGT mutant described by Gronemeyer et al. (Protein Engineering, Design & Selection, Vol. 19, No. 7, pp. 309-316, 2006).
(§3) The transient transfection of the cells is carried out by electroporation using a Biorad electroporator: 10 million cells are transfected by 1 μg SNAP-tag-mGluR2+3 μg pcdna3.1 in a final volume of 300 μl. The electroporation parameters are: 280 V & 1000 μF.
(§4) The cells are then seeded at 150 000 cells per well in Greiner plates (opaque black bottom) previously incubated with polyornithine for 30 minutes at 37° C.
(§5) The cells are cultured in the DMEM+Phenol Red+10% FCS+penicillin/streptomycin+non-essential amino acids medium at 37° C. and 5% CO2. After 24 h of expression, a first washing operation is carried out with 100 μl of this same medium.
(§6) The labeling of the AGT-mGluR2 fusion protein takes place in 100 μl of complete medium with increasing concentrations of BG-fluorophore or BG-L1-A-L2-fluorophore according to the invention for 1 h at 37° C. Before the reading, 4 washing operations are carried out with 100 μl of Tris-Krebs.
(§7) For the substrates bearing fluorophores ATTO647 (example 2), DY647 (examples 1 and 5) and fluorescein-5-EX (example 3), the reading is carried out in 100 μl of Tris-Krebs in direct fluorescence at 682 nm on a Rubystar machine, and at 520 nm for those bearing fluorescein-5-EX (example 3).
(§8) For the substrates bearing the terbium KR complex (examples 4 and 6), the reading is taken in 100 μl of Tris-Krebs in time-resolved fluorescence at 620 nm on a Rubystar machine.
In order to validate the effect of the substrate according to the invention on another mutant of AGT, a characterization of extracellular labeling with the NAGT mutant was carried out.

[3] = biological target: T3, SNAP-tag-ST26 enzyme (SNAP-tag-mGluR2 fusion protein) (Homo sapiens, UniProt P16455, A127T/C150S/C62A/G131K/G132T/K125A/M134L/N157G/R128A/R135S/S159E); test: Enzymatic reactivity test in a cell model, SNAP-tag-mGluR2 expressed by COS 7 cells; type: cell-based; conditions: living COS 7 cells, labeling 1 h at 37° C., read-out: half saturation concentration of the enzyme
T3 construct: expressed in transfected cells; host or cells: COS 7 cells, transient electroporation
T3 sequence (P16455 1-182 C62A/K125A/A127T/R128A/G131K/G132T/M134L/R135S/C150S/N157G/S159E limits assumed): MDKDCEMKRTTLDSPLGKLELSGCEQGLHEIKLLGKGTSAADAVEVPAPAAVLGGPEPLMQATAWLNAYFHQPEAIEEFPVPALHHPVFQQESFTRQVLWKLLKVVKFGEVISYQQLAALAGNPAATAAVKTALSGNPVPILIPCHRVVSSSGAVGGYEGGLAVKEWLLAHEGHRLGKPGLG
Experimental: as §1, §2
• SNAP-tag-mGluR2 plasmid, prepared from the pSET-26b plasmid according to the protocol of the commercial kit (SNAP express pSTE7-26b kit, Covalys Biosciences) • Invitrogen pcdna3.1 plasmid. This plasmid is used as a negative control; the cells transfected with this plasmid are denoted “mock” and make it possible to determine the level of non-specific labeling. Protocol:
as §3, §4, §5, §6, §7, §8

[4] = biological target: T4, SNAP-tag enzyme (GST-SNAP-tag-FKBP fusion protein) (Homo sapiens, UniProt P16455, A127T/C150S/C62A/G131K/G132T/K125A/M134L/N157G/R128A/R135S/S159E); test: Enzymatic reactivity test in an in vitro model (TR-FRET labeling of GST-SNAPtag-FKBP recombinant protein); type: biochemical; conditions: for reactivity of the substrate with the SNAP-tag enzyme: in vitro protein labeling, compared with reference substrate; for percentage of labeling of the SNAP-tag enzyme compared with the reference substrate: in vitro, after 30 min of incubation, regardless of the concentration of substrate
T4 construct: GST (N)
T4 sequence (P16455 1-182 C62A/K125A/A127T/R128A/G131K/G132T/M134L/R135S/C150S/N157G/S159E limits assumed): T3 sequence (P16455 1-182 C62A/K125A/A127T/R128A/G131K/G132T/M134L/R135S/C150S/N157G/S159E limits assumed)
Source text: The test of reactivity of the substrates according to the invention with the SNAP-tag enzyme is based on an in vitro test of labeling a recombinant protein.
In this case, use is made of the FRB and FKBP proteins that interact in the presence of rapamycin.
The FKBP protein is labeled by a first fluorophore via SNAP-tag technology: for this, a GST-SNAPtag-FKBP fusion protein is produced from the pSET7-26b plasmid according to the protocol of the commercial kit (SNAP express pSET7-26b kit, Covalys Biosciences AG, Witterswil/Switzerland). This fusion protein is then brought into contact with the first fluorophore conjugated to a reference BG derivative or to a BG derivative according to the invention.
The FRB protein is itself coupled via conventional conjugation techniques with a donor fluorescent compound (europium TBP cryptate (KTBP), Cisbio Bioassay) or acceptor fluorescent compound (DY647, Dyomics) depending on the case, following the protocols provided with these products.
The table below explains the nature of the pairs of fluorophores in each of the following examples 1 to 4:
In each example, 2 nmol of FRB recombinant protein labeled with a europium cryptate or DY647 (2nd fluorophore) are co-incubated at ambient temperature with 2 nmol of GST-SNAP-tag-FKBP recombinant protein and increasing concentrations of BG labeled by the first fluorophore (BG-fluorophore of the prior art or BG-L1-A-L2-fluorophore according to the invention).
The fluorescence readings are taken at 620 nm and at 665 nm on a RubyStar machine (BMG laboratory) after an excitation at 337 nm. The readings are carried out before and after induction of the FRB/FKBP protein interaction by 100 nM of rapamycin. This interaction is expressed by the emission of a TR-FRET signal. Since the SNAP-tag enzyme can only attach to a single fluorescent group, the increase in the TR-FRET signal is directly proportional to the percentage of labeled proteins in the reaction medium. This in vitro model makes it possible to establish enzymatic labeling kinetics as a function of the excess of substrate involved in the reaction.
The results are indicated either as d665 or as % labeling according to the following formulae: d 665=(signal at 665 nm with the GST-ST-FKBP protein)−(signal at 665 nm without the GST-ST-FKBP protein).
The percentage of labeling is obtained by comparison with the signal corresponding to the maximum labeling that is obtained after 18 hours of incubation. % labeling=(d665 at t measured/d665 18 h of incubation)×100. Procedure of the Enzymatic Reactivity Test in a Cell Model

SMILES: CCN1/C(=C/C=C/C=C/C2=[N+](CC)c3ccc(S(=O)(=O)[O-])cc3C2(C)C)C(C)(CCCC(=O)NCc2ccc(COc3nccc(N)n3)cc2)c2cc(S(=O)(=O)O)ccc21 (stereo not drawn) [BC-DY647, benzylcytosine-DY647, reference compound]
- EC50 [1]: 1570 nM

SMILES: CCN1/C(=C/C=C/C=C/C2=[N+](CC)c3ccc(S(=O)(=O)[O-])cc3C2(C)C)C(C)(CCCC(=O)NCc2ccc(C(=O)NCc3ccc(COc4nccc(N)n4)cc3)cc2)c2cc(S(=O)(=O)O)ccc21 (stereo not drawn) [BC-methylbenzamide-DY647, DY647-methylbenzamide-BC]
- EC50 [1]: 240 nM

SMILES: CCN1/C(=C/C=C/C=C/C2=[N+](CC)c3ccc(S(=O)(=O)[O-])cc3C2(C)C)C(C)(CCCC(=O)NCc2ccc(COc3nc(N)nc4[nH]cnc34)cc2)c2cc(S(=O)(=O)O)ccc21 (stereo not drawn) [BG-DY647, benzylguanine-Dy647, reference compound]
- EC50 [2]: 43 nM
- EC50 [3]: 168 nM

SMILES: Nc1nc(OCc2ccc(CNC(=O)CCSCC(=O)Nc3ccc(-c4c5ccc(=O)cc-5oc5cc(O)ccc45)c(C(=O)O)c3)cc2)c2nc[nH]c2n1 [BG-fluorescein-5-EX, benzylguanine-fluorescein-5-EX, reference compound]
- reactivity of the substrate with the SNAP-tag enzyme [4]: adequate

SMILES: CCN1c2cc3c(cc2C(C)=CC1(C)C)C(c1ccc(C(=O)N(C)CCCC(=O)NCc2ccc(C(=O)NCc4ccc(COc5nc(N)nc6[nH]cnc56)cc4)cc2)cc1)=c1cc2c(cc1O3)=[N+](CC)C(C)(C)C=C2C [BG-methylbenzamide-ATTO647N, ATTO647N-methylbenzamide-BG]
- percentage of labeling of the SNAP-tag enzyme compared with the reference substrate [4]: much better

SMILES: Nc1ccc2cc3ccc(N)cc3[n+](CCCC(=O)NCc3ccc(C(=O)NCc4ccc(COc5cc(N)nc6[nH]cnc56)cc4)cc3)c2c1 [BG-methylbenzamide-Atto465, Atto465-methylbenzamide-BG]
- EC50 [3]: 213 nM

SMILES: CCN1/C(=C/C=C/C=C/C2=[N+](CC)c3ccc(S(=O)(=O)[O-])cc3C2(C)C)C(C)(CCCC(=O)NCc2ccc(C(=O)NCc3ccc(COc4nc(N)nc5[nH]cnc45)cc3)cc2)c2cc(S(=O)(=O)O)ccc21 (stereo not drawn) [BG-methylbenzamide-DY647, Dy647-methylbenzamide-BG]
- half saturation concentration, times lower relative to the reference substrate ([2]; N-AGT enzyme, versus BG-DY647): around 2 times
- EC50 [2]: 22.3 nM
- percentage of labeling of the SNAP-tag enzyme compared with the reference substrate [4]: greatly improved
- EC50 [3]: 91.3 nM

SMILES: Nc1nc(OCc2ccc(CNC(=O)c3ccc(CNC(=O)CCSCC(=O)Nc4ccc(-c5c6ccc(=O)cc-6oc6cc(O)ccc56)c(C(=O)O)c4)cc3)cc2)c2nc[nH]c2n1 [BG-methylbenzamide-fluorescein-5-EX, fluorescein-5-EX-benzylamide-BG]
- reactivity of the substrate with the SNAP-tag enzyme [4]: better than that of the reference substrate
